How the values were obtained:
Type in all cases: cell-based
RARα = target: T1, RARα (Homo sapiens, UniProt P10276); assay: Transactivation reporter test (luciferase) in HeLa ERE Luc-hRAR cells, RARα; details: for EC50: HeLa ERE Luc-hRAR cells, dose-response 10000 nM-0.04 nM, 18 hours incubation; for RARα Comments: agonist type (total/partial); for RARα Efficacy: normalized to basal control and maximum efficacy control CD0193 100 nM
T1 construct: expressed in transfected cells; line from Prof; Ballaguer, INSERM 439, Montpellier
T1 sequence (P10276 183-417 limits assumed): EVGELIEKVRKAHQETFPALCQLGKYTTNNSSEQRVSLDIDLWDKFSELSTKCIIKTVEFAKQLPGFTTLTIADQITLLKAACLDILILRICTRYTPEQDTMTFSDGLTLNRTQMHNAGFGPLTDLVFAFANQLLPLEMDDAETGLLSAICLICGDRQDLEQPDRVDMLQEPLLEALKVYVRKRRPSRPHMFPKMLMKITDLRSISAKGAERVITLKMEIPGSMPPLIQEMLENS
Procedure: (§1) The activity of our molecules on the RAR is measured using a recombinant line expressing the ligand-biding domain (LBD) of RAR fused with the DNA binding domain (DBD) of the estrogen receptors. The specific transactivation of the receptor on the receptor estrogen response element (ERE) leads to transcription of luciferase. The expression of this reporter gene is quantified by luminescence after addition of its substrate, luciferin.
(§2) This line was produced by Prof. Ballaguer (INSERM 439, Montpellier) after stable transfection of HeLa by ERE-βGlob-Luc-SV-Neo and RAR(α, β, γ)-ER-DBD-puro plasmids.
(§3) The compounds are evaluated by dose-response (10000 nM-0.04 nM) normalized relative to a basal control and a maximum efficacy control (CD0193, reference agonist with 100 nM saturating concentration): Y=((X−0%)/(100%−0%))*100.
(§4) The affinity (EC50 in nM) and efficacy (in %) are measured using the XLfit (IDBS) software according to a four-parameter nonlinear regression (model 205).
(§5) HeLa ERE Luc-hRAR cells are inoculated on 96 well microplates (10,000 cell/100 μL). After 4 hours of incubation at 37° C./5% CO2, they are treated with 5 μL of 20× products (0.1 final DMSO).

RARγ = target: T2, RARγ (Homo sapiens, UniProt P13631); assay: Transactivation reporter test (luciferase) in HeLa ERE Luc-hRAR cells, RARγ; details: for EC50: HeLa ERE Luc-hRAR cells, dose-response 10000 nM-0.04 nM, 18 hours incubation; for RARγ Comments: agonist type (total/partial); for RARγ Efficacy (%): normalized to basal control and maximum efficacy control CD0193 100 nM
T2 construct: expressed in transfected cells; line from Prof; Ballaguer, INSERM 439, Montpellier
T2 sequence (P13631 185-419 limits assumed): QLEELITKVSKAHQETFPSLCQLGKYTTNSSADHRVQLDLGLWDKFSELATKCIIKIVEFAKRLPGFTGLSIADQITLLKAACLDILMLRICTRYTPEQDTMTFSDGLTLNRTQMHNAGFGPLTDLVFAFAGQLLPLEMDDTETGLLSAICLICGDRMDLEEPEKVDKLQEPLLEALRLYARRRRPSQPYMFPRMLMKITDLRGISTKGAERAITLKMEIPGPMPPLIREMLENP
Procedure: as §1, §2, §3, §4, §5

RARβ = target: T3, RARβ (Homo sapiens, UniProt P10826); assay: Transactivation reporter test (luciferase) in HeLa ERE Luc-hRAR cells, RARβ; details: for EC50: HeLa ERE Luc-hRAR cells, dose-response 10000 nM-0.04 nM, 18 hours incubation; for RARβ Comments: agonist type (total/partial); for RARβ Efficacy (%): normalized to basal control and maximum efficacy control CD0193 100 nM
T3 construct: expressed in transfected cells; line from Prof; Ballaguer, INSERM 439, Montpellier
T3 sequence (P10826 183-417 limits assumed): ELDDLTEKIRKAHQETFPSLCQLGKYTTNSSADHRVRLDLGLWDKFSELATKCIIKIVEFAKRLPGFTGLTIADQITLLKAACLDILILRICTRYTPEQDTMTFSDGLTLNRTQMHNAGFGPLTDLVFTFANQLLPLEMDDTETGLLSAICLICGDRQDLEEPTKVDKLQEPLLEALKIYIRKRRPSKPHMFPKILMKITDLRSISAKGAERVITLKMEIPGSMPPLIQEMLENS
Procedure: as §1, §2, §3, §4, §5

SMILES | EC50 (RARα) [nM] | RARα Comments (RARα) | RARα Efficacy (RARα) [%] | EC50 (RARγ) [nM] | RARγ Comments (RARγ) | RARγ Efficacy (%) (RARγ) | EC50 (RARβ) [nM] | RARβ Comments (RARβ) | RARβ Efficacy (%) (RARβ)
CCOc1ccc(-c2noc(-c3ccc(C(=O)O)cc3)n2)cc1C(C)(C)C [4-[3-(3-tert-butyl-4-ethoxy-phenyl)-[1,2,4]oxadiazol-5-yl]-benzoic acid] | 255 | Total | 105 | 9.3 | Total | 96 | 3.8 | Total agonist | 92
CC1(C)CCC(C)(C)c2cc(-c3cnc(-c4ccc(C(=O)O)cc4)s3)ccc21 [4-[5-(5,5,8,8-tetramethyl-5,6,7,8-tetrahydro-naphthalen-2-yl)-thiazol-2-yl]-benzoic acid] | 9790 | Total | 64 | 162 | Total | 78 | 52 | Total agonist | 110
CCCOc1ccc(-c2cnc(-c3ccc(C(=O)O)cc3)s2)cc1C1(C)CCCCC1 [4-{5-[3-(1-methyl-cyclohexyl)-4-propoxy-phenyl]-thiazol-2-yl}-benzoic acid] | 3170 | Total | 68 | 1030 | Total | 74 | 635 | Total agonist | 90
CCOCOc1ccc(-c2noc(-c3ccc(C(=O)O)cc3)n2)cc1C(C)(C)C [4-[3-(3-tert-butyl-4-ethoxymethoxy-phenyl)-[1,2,4]oxadiazol-5-yl]-benzoic acid] | 650 | Total | 104 | 10 | Total | 88 | 6.2 | Total agonist | 95
COc1ccc(-c2cnc(-c3ccc(C(=O)O)cc3)s2)cc1C(C)(C)C [4-[5-(3-tert-butyl-4-methoxy-phenyl)-thiazol-2-yl]-benzoic acid] | 109 | partial agonist | 53 | 66 | partial agonist | 40 | 164 | partial agonist | 46

Next, values leading:

EC50 (RARα) [nM] | RARα Comments (RARα) | RARα Efficacy (RARα) [%] | EC50 (RARγ) [nM] | RARγ Comments (RARγ) | RARγ Efficacy (%) (RARγ) | EC50 (RARβ) [nM] | RARβ Comments (RARβ) | RARβ Efficacy (%) (RARβ) | SMILES
90 | Total | 80 | 0.9 | Total | 102 | 0.56 | Total agonist | 107 | CCOCOc1ccc(-c2noc(-c3ccc(C(=O)O)cc3)n2)cc1C1(C)CCCCC1 [4-{3-[4-ethoxymethoxy-3-(1-methyl-cyclohexyl)-phenyl]-[1,2,4]oxadiazol-5-yl}-benzoic acid]
107 | Total | 106 | 2.4 | Total | 110 | 3 | Total agonist | 110 | CC(C)(C)c1cc(-c2noc(-c3ccc(C(=O)O)cc3)n2)ccc1O [4-[3-(3-tert-butyl-4-hydroxy-phenyl)-[1,2,4]oxadiazol-5-yl]-benzoic acid]

From patent US10647688B2, “Compounds, synthesis method thereof and use of same in medicine and in cosmetics” (GALDERMA RESEARCH & DEVELOPMENT, priority 2014, dated 2020)
